± gives the uncertainty stated by the source.
Experiment: xn = mol fraction of the nth substance listed

N#Cc1ccccc1 + CCO
viscosity [mPa·s], 101.33 kPa
Conditions | x1 = 0.1051 | x1 = 0.2045 | x1 = 0.3213 | x1 = 0.4131 | x1 = 0.4921 | x1 = 0.6214 | x1 = 0.6673 | x1 = 0.769 | x1 = 0.9218
303.15 K | 0.923 ± 0.028 | 0.891 ± 0.027 | 0.897 ± 0.023 | 0.901 ± 0.022 | 0.912 ± 0.02 | 0.938 ± 0.02 | 0.963 ± 0.019 | 1.006 ± 0.019 | 1.075 ± 0.02
308.15 K | 0.846 ± 0.025 | 0.817 ± 0.023 | 0.826 ± 0.022 | 0.834 ± 0.02 | 0.849 ± 0.019 | 0.873 ± 0.018 | 0.893 ± 0.019 | 0.935 ± 0.018 | 1.005 ± 0.017
313.15 K | 0.775 ± 0.023 | 0.75 ± 0.02 | 0.762 ± 0.02 | 0.772 ± 0.019 | 0.785 ± 0.018 | 0.813 ± 0.017 | 0.828 ± 0.017 | 0.87 ± 0.017 | 0.939 ± 0.015

CCCCn1cc[n+](C)c1.[Cl-] + O
101 kPa
Conditions | viscosity [mPa·s]
293.15 K, x2 = 0.4982 | 235.1
293.15 K, x2 = 0.6132 | 85.9 ± 15
303.15 K, x2 = 0.5535 | 83.3 ± 14
308.15 K, x2 = 0.4982 | 92.5 ± 19

CC(C)C(C)C + CCCCCCCCCCCCCC
298 K, 101.33 kPa
Conditions | viscosity [mPa·s]
x1 = 0.1 | 1.884 ± 0.024
x1 = 0.2006 | 1.669 ± 0.022
x1 = 0.3044 | 1.451 ± 0.02
x1 = 0.4033 | 1.246 ± 0.017
x1 = 0.503 | 1.051 ± 0.015
x1 = 0.6031 | 0.8719 ± 0.013
x1 = 0.701 | 0.7123 ± 0.011
x1 = 0.8016 | 0.5711 ± 0.0094
x1 = 0.9008 | 0.4356 ± 0.0076

CCCOCCO + CO
298.15 K, 101.33 kPa
Conditions | viscosity [mPa·s]
x1 = 0.0024 | 0.553 ± 0.01
x1 = 0.0177 | 0.581 ± 0.01
x1 = 0.041 | 0.62 ± 0.011
x1 = 0.0504 | 0.644 ± 0.011
x1 = 0.0697 | 0.673 ± 0.011
x1 = 0.0903 | 0.729 ± 0.012
x1 = 0.1252 | 0.801 ± 0.013
x1 = 0.159 | 0.865 ± 0.014
x1 = 0.1826 | 0.914 ± 0.015
x1 = 0.2208 | 0.989 ± 0.016
x1 = 0.2613 | 1.084 ± 0.018
x1 = 0.2874 | 1.149 ± 0.019
x1 = 0.3049 | 1.199 ± 0.019
x1 = 0.341 | 1.284 ± 0.021
x1 = 0.3895 | 1.394 ± 0.022
x1 = 0.4426 | 1.499 ± 0.024
x1 = 0.4816 | 1.577 ± 0.026
x1 = 0.5329 | 1.68 ± 0.027
x1 = 0.5596 | 1.737 ± 0.028
x1 = 0.6366 | 1.878 ± 0.031
x1 = 0.6677 | 1.927 ± 0.032
x1 = 0.7153 | 2.014 ± 0.034
x1 = 0.7701 | 2.115 ± 0.036
x1 = 0.8053 | 2.16 ± 0.037
x1 = 0.8437 | 2.194 ± 0.038
x1 = 0.8812 | 2.248 ± 0.039
x1 = 0.9415 | 2.323 ± 0.041
x2 = 0.0116 | 2.347 ± 0.042

NNc1ccccc1 + Oc1ccccc1
323.1 K, 101 kPa
Conditions | viscosity [mPa·s]
x1 = 0.181 | 5.25 ± 0.11
x1 = 0.369 | 7.49 ± 0.15
x1 = 0.466 | 8.02 ± 0.16
x1 = 0.502 | 8.2 ± 0.16
x1 = 0.595 | 8.05 ± 0.16
x1 = 0.781 | 6.56 ± 0.13

CCCOCCO + O=S1(=O)CCCC1
303.15 K, 101 kPa
Conditions | viscosity [mPa·s]
x2 = 0.0493 | 1.842 ± 0.014
x2 = 0.1029 | 1.682 ± 0.014
x2 = 0.1508 | 1.659 ± 0.014
x2 = 0.1991 | 1.748 ± 0.015
x2 = 0.2989 | 2.284 ± 0.02
x2 = 0.3489 | 2.685 ± 0.024
x2 = 0.3998 | 3.16 ± 0.028
x2 = 0.4993 | 4.193 ± 0.039
x2 = 0.5988 | 5.262 ± 0.051
x2 = 0.7002 | 6.392 ± 0.064
x2 = 0.8 | 7.572 ± 0.078
x2 = 0.9012 | 8.861 ± 0.094
x2 = 0.9504 | 9.498 ± 0.1

CCCCn1cc[n+](C)c1.[Cl-] + CC#N
Conditions | viscosity [mPa·s]
308.15 K, 101 kPa, x2 = 0.7003 | 8.47 ± 1.4

N#Cc1ccccc1 + OCc1ccccc1
303.15 K, 101 kPa
Conditions | viscosity [mPa·s]
x2 = 0.146 | 1.123 ± 0.01
x2 = 0.276 | 1.263 ± 0.012
x2 = 0.3251 | 1.366 ± 0.013
x2 = 0.4147 | 1.535 ± 0.014
x2 = 0.5549 | 1.902 ± 0.017
x2 = 0.6387 | 2.184 ± 0.019
x2 = 0.7443 | 2.635 ± 0.023
x2 = 0.8022 | 2.942 ± 0.026
x2 = 0.9039 | 3.595 ± 0.031

CC(C)C(C)C + CCCCCCCCCCCCCCCC
298 K, 101.33 kPa
Conditions | viscosity [mPa·s]
x1 = 0.0846 | 2.773 ± 0.035
x1 = 0.2077 | 2.325 ± 0.03
x1 = 0.2966 | 2.045 ± 0.027
x1 = 0.3988 | 1.74 ± 0.024
x1 = 0.4973 | 1.432 ± 0.02
x1 = 0.6023 | 1.135 ± 0.017
x1 = 0.7034 | 0.8764 ± 0.013
x1 = 0.8019 | 0.6623 ± 0.011
x1 = 0.9002 | 0.4751 ± 0.0081

NCCOCCOCCN.O=S(=O)([N-]S(=O)(=O)C(F)(F)F)C(F)(F)F.[Li+] + O
323.15 K, 101 kPa
Conditions | viscosity [mPa·s]
x1 = 0.0299 | 1.86 ± 0.13
x1 = 0.0598 | 4.12 ± 0.23
x1 = 0.1028 | 8.92 ± 0.36
x1 = 0.1994 | 22.16 ± 0.68
x1 = 0.2969 | 37.12 ± 1.1
x1 = 0.3942 | 52.68 ± 1.5
x1 = 0.4958 | 66.7 ± 2.3
x1 = 0.6022 | 79.33 ± 3.4
x1 = 0.6956 | 89.08 ± 4.3
x1 = 0.8777 | 103.8 ± 5.9

CCCCC[N+](CC)(CC)CC.O=S(=O)([N-]S(=O)(=O)C(F)(F)F)C(F)(F)F + CCCCC[P+](CC)(CC)CC.O=S(=O)([N-]S(=O)(=O)C(F)(F)F)C(F)(F)F
viscosity [mPa·s], 101.3 kPa
Conditions | 298.15 K | 303.15 K | 308.15 K | 313.15 K | 318.15 K
x1 = 0.2 | 96.6 ± 19 | 75.4 ± 15 | 59.8 ± 12 | – | –
x1 = 0.4 | – | 83.6 ± 17 | 65.8 ± 13 | 52.7 ± 11 | –
x1 = 0.6 | – | 94.3 ± 19 | 73.6 ± 15 | 58.4 ± 12 | –
x1 = 0.8 | – | – | 83.8 ± 17 | – | 52.8 ± 11

CC(O)CN (stereo not given) + O
viscosity [mPa·s]
Conditions | 293.15 K | 298.15 K | 303.15 K | 308.15 K | 313.15 K | 318.15 K | 323.15 K
101 kPa, x1 = 0.01 | – | – | – | – | – | 0.7225 ± 0.0064 | –
101 kPa, x1 = 0.06 | – | – | – | – | – | 1.155 ± 0.008 | –
101 kPa, x1 = 0.5995 | – | – | – | – | 12.85 ± 0.41 | – | –
101.3 kPa, x1 = 0.0126 | 1.228 ± 0.018 | 1.03 ± 0.015 | 0.894 ± 0.014 | 0.781 ± 0.013 | 0.682 ± 0.011 | – | 0.573 ± 0.008
101.3 kPa, x1 = 0.026 | 1.488 ± 0.023 | 1.273 ± 0.019 | 1.122 ± 0.017 | 0.99 ± 0.014 | 0.868 ± 0.012 | – | 0.72 ± 0.01
101.3 kPa, x1 = 0.0565 | 2.334 ± 0.026 | 1.985 ± 0.023 | 1.721 ± 0.019 | 1.493 ± 0.016 | 1.299 ± 0.014 | – | 1.049 ± 0.011

N#Cc1ccccc1 + CCCCCO
viscosity [mPa·s], 101.33 kPa
Conditions | x1 = 0.1034 | x1 = 0.1623 | x1 = 0.3038 | x1 = 0.387 | x1 = 0.5033 | x1 = 0.6086 | x1 = 0.7205 | x1 = 0.82 | x1 = 0.9162
303.15 K | 2.395 ± 0.085 | 2.152 ± 0.072 | 1.737 ± 0.053 | 1.558 ± 0.045 | 1.374 ± 0.038 | 1.262 ± 0.029 | 1.182 ± 0.025 | 1.153 ± 0.021 | 1.14 ± 0.02
308.15 K | 2.116 ± 0.071 | 1.925 ± 0.062 | 1.565 ± 0.046 | 1.406 ± 0.038 | 1.244 ± 0.031 | 1.162 ± 0.026 | 1.097 ± 0.022 | 1.079 ± 0.019 | 1.064 ± 0.018
313.15 K | 1.895 ± 0.062 | 1.723 ± 0.054 | 1.412 ± 0.039 | 1.283 ± 0.033 | 1.14 ± 0.025 | 1.07 ± 0.023 | 1.017 ± 0.019 | 1.01 ± 0.019 | 0.993 ± 0.017

CCCOCCO + CN(C)C=O
298.15 K, 101 kPa
Conditions | viscosity [mPa·s]
x1 = 0.0076 | 0.821 ± 0.011
x1 = 0.0172 | 0.834 ± 0.011
x1 = 0.029 | 0.846 ± 0.011
x1 = 0.0502 | 0.874 ± 0.011
x1 = 0.1029 | 0.948 ± 0.012
x1 = 0.1416 | 0.998 ± 0.013
x1 = 0.1927 | 1.07 ± 0.014
x1 = 0.264 | 1.18 ± 0.015
x1 = 0.2944 | 1.223 ± 0.016
x1 = 0.3428 | 1.289 ± 0.017
x1 = 0.3521 | 1.305 ± 0.017
x1 = 0.4414 | 1.458 ± 0.019
x1 = 0.5181 | 1.582 ± 0.021
x1 = 0.5987 | 1.726 ± 0.023
x1 = 0.6457 | 1.809 ± 0.025
x1 = 0.6982 | 1.895 ± 0.026
x1 = 0.7555 | 1.989 ± 0.028
x1 = 0.8533 | 2.164 ± 0.031
x1 = 0.9398 | 2.308 ± 0.034
x1 = 0.9729 | 2.345 ± 0.035
